Consider one compound from patent US11479470B2, “Three-dimensional boron-rich clusters” (The Regents of the University of California, priority 2016, dated 2022).

Molecules are shown by their SMILES. Entries after “also recorded” stand apart in the source; their conditions may differ.

This assay deals with concanavalin A (ConA) (Canavalia ensiformis, UniProt P02866). Kind of assay: Surface plasmon resonance (Biacore T100) binding of glycosylated OCN to immobilised lectin. The note with it: injected at the highest mass concentration of [2l] shown (2.0 mg 1-1). Here is the method:
ConA was covalently attached to the Au-coated sensor chip's dextran layer via conventional amide coupling, and binding between ConA and the injected analyte was measured as a change in the refractive index (RI) and expressed in response units (RU). […] (See, e.g., Kamiya, N., et al., J. Am. Chem. Soc. 129, 3816-3817 (2007), the disclosure of which is incorporated herein by reference.)

With `O=C[C@H](O)[C@@H](O)[C@H](O)[C@H](O)CO` [D-glucose], the “binding response to ConA (controls)” value is “minimal to no binding; also recorded: minimal binding”.
